Literature values in patent publication US6601275B2, “Method and composition for embalming” (United Biotechnologies, L.L.C., priority 2000, dated 2003).

## C=O [formaldehyde]
airborne
  airborne concentration causing irritation of the eyes nose and throat: above 0.1 ppm
  airborne concentration immediately dangerous to life and health: 100 ppm
human
  carcinogenicity: potential human carcinogen
